Reference: ChEMBL document CHEMBL1150256, “Kahalalides V-Y isolated from a Hawaiian collection of the sacoglossan mollusk Elysia rufescens” (2008)
The source made the active and inactive calls. The calls are words filed in the database; no cut-off is given here.

Columns and labels:
DU-145 = experiment: Growth inhibition of human DU145 cells; format: functional
PC-3 = experiment: Growth inhibition of human PC3 cells; format: functional
Mus musculus = experiment: Antidepressant activity in Swiss Webster mouse at 0 to10 mg/kg, ip by forced swim test; format: functional, organism-based

Compound | growth inhibition (GI) (DU-145) | growth inhibition (GI) (PC-3) | Activity (Mus musculus)
C/C=C1\NC(=O)[C@H](Cc2ccccc2)NC(=O)[C@@H](C(C)C)NC(=O)[C@@H]([C@H](C)CC)NC(=O)[C@H](NC(=O)[C@H](NC(=O)[C@H](CCCN)NC(=O)[C@H]2CCCN2C(=O)[C@H](NC(=O)[C@@H](NC(=O)[C@@H](NC(=O)[C@H](NC(=O)CCCC(C)C)C(C)C)[C@@H](C)O)C(C)C)C(C)C)[C@H](C)CC)[C@H](C)OC(=O)[C@H](C(C)C)NC1=O [KAHALALIDE F] | 40% | 40% | 
CC(C)CCC[C@H]1CC(=O)N[C@H](Cc2c[nH]c3ccccc23)C(=O)N2CCC[C@H]2C(=O)N[C@@H](CCCNC(=N)N)C(=O)O1 |  |  | inactive
